We go through 17 molecules from ChEMBL document CHEMBL1157605, “Hybrid molecules from xanomeline and tacrine: enhanced tacrine actions on cholinesterases and muscarinic M1 receptors” (J Med Chem, 2010).

pIC50: −log10 of the molar value. Calls of active or inactive are those of the source. The calls are words filed in the database; no cut-off is given here.

In one experiment the target is T1, Muscarinic acetylcholine receptor M1 (Homo sapiens) (UniProt P11229).
T1 sequence (whole entry): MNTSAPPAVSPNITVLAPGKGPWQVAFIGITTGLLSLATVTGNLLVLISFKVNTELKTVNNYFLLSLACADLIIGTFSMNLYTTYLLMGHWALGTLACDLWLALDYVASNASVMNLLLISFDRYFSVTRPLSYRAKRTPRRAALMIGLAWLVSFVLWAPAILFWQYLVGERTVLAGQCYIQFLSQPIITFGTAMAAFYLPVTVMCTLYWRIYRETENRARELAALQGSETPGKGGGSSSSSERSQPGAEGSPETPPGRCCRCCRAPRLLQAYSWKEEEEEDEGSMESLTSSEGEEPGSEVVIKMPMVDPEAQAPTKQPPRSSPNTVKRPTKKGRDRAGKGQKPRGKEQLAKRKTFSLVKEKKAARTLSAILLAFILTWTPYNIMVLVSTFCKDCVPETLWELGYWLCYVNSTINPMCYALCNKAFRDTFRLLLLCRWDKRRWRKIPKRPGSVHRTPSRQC
The conditions noted are these: CHO.
Description: Displacement of [3H]NMS from human muscarinic M1 receptor expressed in CHO cells in ternary complex by EATCM analysis
In turn, `CN1CCC=C(c2nsnc2OCCCOCCCC(=O)NCCCCCCCCNc2c3c(nc4ccccc24)CCCC3)C1` had a logKd of 7.06.
As to `CN1CCC=C(c2nsnc2OCCCOCC(=O)NCCCCCCCCNc2c3c(nc4ccccc24)CCCC3)C1`, the logKd came to 6.35.
In turn, `CCCCCCOc1nsnc1C1=CCCN(C)C1` gave a logKd of 4.94.
Molecule `CN1CCC=C(c2nsnc2OCCCCNCCCCNc2c3c(nc4ccccc24)CCCC3)C1` registered a logKd of 7.49.
In turn, `CN1CCC=C(c2nsnc2OCCCOCCC(=O)NCCCCCCCCNc2c3c(nc4ccccc24)CCCC3)C1` displayed a logKd of 6.7.
As to `CN1CCC=C(c2nsnc2OCCCOCC(=O)NCCCNc2c3c(nc4ccccc24)CCCC3)C1`, the logKd is 7.87.
`CN1CCC=C(c2nsnc2OCCCOCCC(=O)NCCCNc2c3c(nc4ccccc24)CCCC3)C1` displayed a logKd of 8.03.

The target in another experiment is Cholinesterase (Equus caballus, UniProt P81908).
Chain of Cholinesterase (P81908 whole entry): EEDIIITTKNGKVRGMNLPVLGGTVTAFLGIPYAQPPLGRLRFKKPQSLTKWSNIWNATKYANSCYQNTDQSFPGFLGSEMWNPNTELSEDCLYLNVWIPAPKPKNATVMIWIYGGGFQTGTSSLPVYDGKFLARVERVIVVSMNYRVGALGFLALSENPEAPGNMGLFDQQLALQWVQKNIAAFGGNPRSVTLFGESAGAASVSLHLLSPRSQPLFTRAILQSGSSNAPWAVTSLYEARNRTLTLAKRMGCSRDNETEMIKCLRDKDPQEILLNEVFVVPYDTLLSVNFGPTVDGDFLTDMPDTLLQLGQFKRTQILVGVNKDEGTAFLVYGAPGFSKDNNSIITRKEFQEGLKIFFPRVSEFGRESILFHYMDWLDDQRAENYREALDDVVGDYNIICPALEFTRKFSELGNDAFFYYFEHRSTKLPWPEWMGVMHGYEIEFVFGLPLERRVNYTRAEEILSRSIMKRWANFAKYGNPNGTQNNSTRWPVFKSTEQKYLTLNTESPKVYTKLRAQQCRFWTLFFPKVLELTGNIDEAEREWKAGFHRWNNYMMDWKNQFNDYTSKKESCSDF
Settings: not given
For `CN1CCC=C(c2nsnc2OCCCOCCCC(=O)NCCCCCCCCNc2c3c(nc4ccccc24)CCCC3)C1`, the pIC50 was 8.30.
Consider `CN1CCC=C(c2nsnc2OCCCOCCCC(=O)NCCCCNc2c3c(nc4ccccc24)CCCC3)C1`, for which the pIC50 is 8.17.
With `CN1CCC=C(c2nsnc2OCCCOCC(=O)NCCCCCCCCNc2c3c(nc4ccccc24)CCCC3)C1`, the negative logarithm of the IC50 (pIC50) was 8.29.
Still for that read-out and setting: for `CN1CCC=C(c2nsnc2OCCCCNCCCCNc2c3c(nc4ccccc24)CCCC3)C1` the value was 7.79; for `CN1CCC=C(c2nsnc2OCCCOCCC(=O)NCCCCCCCCNc2c3c(nc4ccccc24)CCCC3)C1`, 7.88; for `CN1CCC=C(c2nsnc2OCCCOCCCCC(=O)NCCCCCCCCNc2c3c(nc4ccccc24)CCCC3)C1`, 8.23.
The same measure, in the same setting: for `CN1CCC=C(c2nsnc2OCCCOCC(=O)NCCCNc2c3c(nc4ccccc24)CCCC3)C1` the value was 8.01; for `CN1CCC=C(c2nsnc2OCCCOCCC(=O)NCCCNc2c3c(nc4ccccc24)CCCC3)C1`, 7.97; for `CN1CCC=C(c2nsnc2OCCCOCCCC(=O)NCCCNc2c3c(nc4ccccc24)CCCC3)C1`, 8.00.
`CN1CCC=C(c2nsnc2OCCCCNCCCCCCCCNc2c3c(nc4ccccc24)CCCC3)C1` gave a negative logarithm of the IC50 (pIC50) of 7.87.
For `CN1CCC=C(c2nsnc2OCCCCNCCCNc2c3c(nc4ccccc24)CCCC3)C1`, the pIC50 was 7.54.
The same measure, in the same setting: the same measure for `CN1CCC=C(c2nsnc2OCCCOCCCCC(=O)NCCCNc2c3c(nc4ccccc24)CCCC3)C1`: 8.05.
Consider `CN1CCC=C(c2nsnc2OCCCCNCCCCCNc2c3c(nc4ccccc24)CCCC3)C1`, for which the pIC50 was 7.91.
`CN1CCC=C(c2nsnc2OCCCOCC(=O)NCCCCNc2c3c(nc4ccccc24)CCCC3)C1` gave a negative-log IC50 (pIC50) of 7.97.
Turning to `CN1CCC=C(c2nsnc2OCCCOCCC(=O)NCCCCNc2c3c(nc4ccccc24)CCCC3)C1`, the pIC50 is 8.04.
Molecule `CN1CCC=C(c2nsnc2OCCCOCCCCC(=O)NCCCCNc2c3c(nc4ccccc24)CCCC3)C1` gave a negative-log IC50 (pIC50) of 8.23.

In a further experiment the target is T1, Muscarinic acetylcholine receptor M1 (Homo sapiens). To be noted: CHO. This is another data set of the same source.
Description: Displacement of [3H]NMS from human muscarinic M1 receptor expressed in CHO cells in binary complex by EATCM analysis
In turn, `CN1CCC=C(c2nsnc2OCCCOCCCC(=O)NCCCCCCCCNc2c3c(nc4ccccc24)CCCC3)C1` registered a logKd of 7.38.
As for `CN1CCC=C(c2nsnc2OCCCOCC(=O)NCCCCCCCCNc2c3c(nc4ccccc24)CCCC3)C1`, the logKd turned out to be 6.88.
On the same count and under the same terms, for `CCCCCCOc1nsnc1C1=CCCN(C)C1` the value was 7.4; for `CN1CCC=C(c2nsnc2OCCCCNCCCCNc2c3c(nc4ccccc24)CCCC3)C1`, 8.13; for `CN1CCC=C(c2nsnc2OCCCOCCC(=O)NCCCCCCCCNc2c3c(nc4ccccc24)CCCC3)C1`, 7.57.
As to `CN1CCC=C(c2nsnc2OCCCOCC(=O)NCCCNc2c3c(nc4ccccc24)CCCC3)C1`, the logKd stood at 8.1.
Still for that read-out and setting: for `CN1CCC=C(c2nsnc2OCCCOCCC(=O)NCCCNc2c3c(nc4ccccc24)CCCC3)C1` the value was 8.09.

The target of another experiment is Acetylcholinesterase (Electrophorus electricus, UniProt O42275).
Chain of Acetylcholinesterase (O42275 whole entry): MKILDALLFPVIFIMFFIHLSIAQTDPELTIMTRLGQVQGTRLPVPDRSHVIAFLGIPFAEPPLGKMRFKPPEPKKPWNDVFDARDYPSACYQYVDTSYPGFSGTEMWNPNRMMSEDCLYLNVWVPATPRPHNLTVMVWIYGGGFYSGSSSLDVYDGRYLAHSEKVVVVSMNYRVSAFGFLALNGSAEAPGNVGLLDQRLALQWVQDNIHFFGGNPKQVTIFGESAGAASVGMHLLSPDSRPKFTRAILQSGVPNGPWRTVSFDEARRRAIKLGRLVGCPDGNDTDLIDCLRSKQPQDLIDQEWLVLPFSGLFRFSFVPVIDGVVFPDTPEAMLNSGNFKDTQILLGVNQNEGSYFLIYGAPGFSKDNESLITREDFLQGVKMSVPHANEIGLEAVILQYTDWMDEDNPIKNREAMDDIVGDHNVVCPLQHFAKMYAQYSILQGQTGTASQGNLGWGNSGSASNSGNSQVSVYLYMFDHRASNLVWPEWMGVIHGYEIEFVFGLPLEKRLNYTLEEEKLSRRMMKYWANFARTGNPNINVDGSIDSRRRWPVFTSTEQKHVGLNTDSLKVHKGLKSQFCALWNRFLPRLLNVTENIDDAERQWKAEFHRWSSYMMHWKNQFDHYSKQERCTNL
Settings: not given
Consider `CN1CCC=C(c2nsnc2OCCCOCCCC(=O)NCCCCCCCCNc2c3c(nc4ccccc24)CCCC3)C1`, for which the negative-log IC50 (pIC50) was 8.19.
`CN1CCC=C(c2nsnc2OCCCOCC(=O)NCCCCCCCCNc2c3c(nc4ccccc24)CCCC3)C1`: the negative logarithm of the IC50 (pIC50) is 8.18.
As to `CN1CCC=C(c2nsnc2OCCCCNCCCCNc2c3c(nc4ccccc24)CCCC3)C1`, the pIC50 was 7.36.
Turning to `CN1CCC=C(c2nsnc2OCCCOCCC(=O)NCCCCCCCCNc2c3c(nc4ccccc24)CCCC3)C1`, the pIC50 was 7.64.
On the same count and under the same terms, for `CN1CCC=C(c2nsnc2OCCCOCCCCC(=O)NCCCCCCCCNc2c3c(nc4ccccc24)CCCC3)C1` the value was 8.21; for `CN1CCC=C(c2nsnc2OCCCOCC(=O)NCCCNc2c3c(nc4ccccc24)CCCC3)C1`, 7.83.
Regarding `CN1CCC=C(c2nsnc2OCCCOCCC(=O)NCCCNc2c3c(nc4ccccc24)CCCC3)C1`, the pIC50 was 7.87.
For the molecule `CN1CCC=C(c2nsnc2OCCCOCCCC(=O)NCCCNc2c3c(nc4ccccc24)CCCC3)C1`, the pIC50 was 7.97.
The same measure, in the same setting: for `CN1CCC=C(c2nsnc2OCCCCNCCCCCCCCNc2c3c(nc4ccccc24)CCCC3)C1` the value was 7.58.
As for `CN1CCC=C(c2nsnc2OCCCCNCCCNc2c3c(nc4ccccc24)CCCC3)C1`, the pIC50 was 7.20.
Molecule `CN1CCC=C(c2nsnc2OCCCOCCCCC(=O)NCCCNc2c3c(nc4ccccc24)CCCC3)C1` gave a pIC50 of 7.99.
Same read-out and setting: the same measure for `CN1CCC=C(c2nsnc2OCCCCNCCCCCNc2c3c(nc4ccccc24)CCCC3)C1`: 7.66; for `CN1CCC=C(c2nsnc2OCCCOCC(=O)NCCCCNc2c3c(nc4ccccc24)CCCC3)C1`: 7.92.
In turn, `CN1CCC=C(c2nsnc2OCCCOCCC(=O)NCCCCNc2c3c(nc4ccccc24)CCCC3)C1` had a pIC50 of 7.97.
In turn, `CN1CCC=C(c2nsnc2OCCCOCCCCC(=O)NCCCCNc2c3c(nc4ccccc24)CCCC3)C1` had a pIC50 of 8.06.

Another experiment deals with Rattus norvegicus. The experiment in a line: Antiamnesic activity against scopolamine-induced memory loss in Wistar rat assessed as increase in total exploration time at 2 umol/100 g body weight, ip by eight-arm radial maze cognition test. The format is functional, organism-based.
Settings: not given
As to `CN1CCC=C(c2nsnc2OCCCOCC(=O)NCCCCCCCCNc2c3c(nc4ccccc24)CCCC3)C1`, the outcome was Active.

The next experiment concerns Rattus norvegicus. The experiment in a line: Antiamnesic activity in Wistar rat assessed as increase in total exploration time at 2 umol/100 g body weight, ip by eight-arm radial maze cognition test. The format is functional, organism-based.
Settings: not given
As for `CN1CCC=C(c2nsnc2OCCCOCC(=O)NCCCCCCCCNc2c3c(nc4ccccc24)CCCC3)C1`, the outcome was Active.
